Earlier results on one compound are cited in patent publication US8227599B2, “Adsorbents comprising anthraquinone dye-ligends for the separation of biological materials” (BASF SE, priority 2005, dated 2012).

The data set deals with Aspergillus terreus NADP-glutamate Dehydrogenase.

Turning to `Nc1c(S(=O)(=O)[O-])cc(Nc2ccc(Nc3nc(Cl)nc(Nc4ccccc4S(=O)(=O)[O-])n3)c(S(=O)(=O)[O-])c2)c2c1C(=O)c1ccccc1C2=O.[Na+].[Na+].[Na+]` [Cibacron Blue 3GA], the “Binding of NADP-GDH to the dye” value was “does not bind”.
